Experiments:
[1] = tested on: LNCaP tumor; experiment: LNCaP xenograft tumor growth in nude mice; type: in vivo; details: 100 mg/kg/day ip three times per week, 7 weeks
Method: In the related in vivo studies, LNCaP human prostate tumor cells are xenografted into nude mice by subcutaneous injection (2×10^6 per site). Mice are subsequently treated, by intraperitoneal injection, with either the vehicle solution as control or the test compounds (ASC-J9 at a dose of 100 milligrams per kilogram body weight), three times a week for 7 weeks. Tumor volume is measured twice a week over the next 7 weeks. […] Data in FIG. 12 show two nude mice received xenografted LNCaP tumor and one treated with vehicle solution (left) and the other with ASC-J9 (right). A significant reduction in tumor size and PSA content in plasma were detected in animal received ASC-J9 treatment. Such results can be taken as a strong indication that the suppression of AR activity and the resulting reduction of tumor growth induced by AR-degrading compounds such as ASC-J9, may be translated into a practical use for treating or preventing diseases and disorders related to AR activity, such as prostate and other cancers.
Two million LNCaP tumor cells were inoculated, subcutaneously, into the left flank of nude mice. In the experimental animals, the nude mice were give an intraperitoneal (ip) injection of compound ASC-J9 at 100 mg/kg/day three times per week or with vehicle control only. After 7 weeks of treatment the tumors were excised, weighed and compared. […] In addition, PSA (prostate specific antigen) level in plasma from animal treated with ASC-J9 reduced 90% (reduce from 57.0 ng/ml to 7.6 ng/ml).

[2] = target: T1, androgen receptor (AR) (Homo sapiens, UniProt P10275); experiment: Specificity Western blot in T47D cell lysates, AR; type: cell-based; details: 5 or 10 micromolar, presence or absence of estrodial (E2)
T1 construct: Incubating T47D cells with ASC-J9 (5 or 10 micromolar) in the presence or absence of estrodial (E2) decreased the cellular concentrations of AR; endogenous in cells; host or cells: T47D
T1 sequence (P10275 1-920): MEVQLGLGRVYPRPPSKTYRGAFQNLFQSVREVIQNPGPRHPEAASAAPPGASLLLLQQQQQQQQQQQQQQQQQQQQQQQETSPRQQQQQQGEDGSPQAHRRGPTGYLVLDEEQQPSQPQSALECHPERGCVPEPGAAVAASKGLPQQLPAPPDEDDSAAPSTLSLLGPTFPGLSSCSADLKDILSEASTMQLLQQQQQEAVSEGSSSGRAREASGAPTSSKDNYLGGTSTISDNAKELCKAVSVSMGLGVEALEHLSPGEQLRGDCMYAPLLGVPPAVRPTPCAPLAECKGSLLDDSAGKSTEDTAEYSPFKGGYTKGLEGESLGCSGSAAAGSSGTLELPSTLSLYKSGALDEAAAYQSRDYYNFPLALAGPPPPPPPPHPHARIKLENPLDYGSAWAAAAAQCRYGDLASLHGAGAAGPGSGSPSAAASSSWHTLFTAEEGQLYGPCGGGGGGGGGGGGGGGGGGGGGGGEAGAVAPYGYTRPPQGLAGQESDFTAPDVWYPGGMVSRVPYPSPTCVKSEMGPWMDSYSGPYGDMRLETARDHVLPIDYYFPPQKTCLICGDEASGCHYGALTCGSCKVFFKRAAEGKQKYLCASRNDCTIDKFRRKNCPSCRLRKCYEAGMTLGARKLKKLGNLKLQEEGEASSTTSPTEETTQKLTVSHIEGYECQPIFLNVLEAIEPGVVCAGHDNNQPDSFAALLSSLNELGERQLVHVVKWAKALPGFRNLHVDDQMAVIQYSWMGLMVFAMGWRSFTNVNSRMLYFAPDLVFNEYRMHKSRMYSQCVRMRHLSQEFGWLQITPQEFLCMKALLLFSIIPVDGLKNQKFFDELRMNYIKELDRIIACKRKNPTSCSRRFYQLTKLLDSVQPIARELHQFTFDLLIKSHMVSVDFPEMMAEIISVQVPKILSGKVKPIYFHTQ
Method: (§1) Human prostate cancer LNCaP cells and T47D cells were plated at a density of 7×10^5 cells per 60 millimeter tissue culture dish in […] medium containing 10% FBS. The medium was changed to RPMI or DME medium containing 10% charcoal-stripped serum 24 hours later to deplete cellular androgens or estrogens. After another 24 hours, treatment with the test compounds began. The test dose of ASC-J9 was 1, and 5 and micromolar. LNCap cells also received dihydrotestosterone (DHT) (3 nanomolar). Control cells received a corresponding amount of the vehicle, dimethylsulfoxide (DMSO) (<0.04%) for an equivalent exposure time. Cells were incubated with ASC-J9 for 24 hours, and were lysed in 250 microliters of 1×SDS/PAGE loading buffer. Approximately 40 micrograms of total cellular protein was loaded in each lane of a pre-cast gel (NuPAGE, Invitrogen). Protein separation and transfer were performed following the manufacturer's instructions.

[3] = tested on: ER beta, PPARα, β or γ, RXRα, hsp70, actin; experiment: Specificity Western blot in LNCaP cell lysates, other nuclear receptors or proteins; type: cell-based, human; details: 1 or 5 micromolar, 24 hours, presence or absence of DHT
Method: as §1
For the LNCaP cell lysates, androgen receptor (AR) protein was visualized by incubating the resultant membranes with an anti-AR antibody (BD-PharMingen), followed by chemiluminescence detection (ECL Plus, Amersham). […] The resultant protein signals were quantified using densitometry and NIH ImageJ software.

[4] = tested on: LNCaP cells; experiment: LNCaP cell growth assay (cell count); type: cell-based, human; details: 5 μM
Method: LNCaP cells express an endogenous mutant AR that is found in prostate cancer patients. This clinically relevant cell model was used to study ASC-J9's effect in suppressing prostate cancer cell growth. Cells were plated, at a density of approximate 6.5×10^4 cells/well, into 6-well tissue culture dishes. Two days later, the complete medium was aspired and 10% charcoal/dextran-treated (hormone depleted) serum-containing medium was added. Test compound, ASC-J9 was then added to the medium at a final concentration of 5 μM with or without 1 nM of DHT. For vehicle control, the same amount of DMSO was added into the medium. For the subsequent 5 days, the medium was aspired once per day, and replaced with fresh medium containing test compound and/or DHT. At designated times, a portion of cells was harvested by trypsinization, and cell count was performed using a hemacytometer.

[5] = tested on: PPARγ, PPARβ, RXRα, ERα and Erβ, ERK, HSP70 and actin; experiment: Specificity Western blot in T47D cell lysates, other receptor proteins; type: cell-based, human; details: T47D cell lysates (FIG. 6)
Method: as §1

SMILES: COc1ccc(C=CC(=O)C=C(O)C=Cc2ccc(OC)c(OC)c2)cc1OC [ASC-J9, 5-hydroxy-1,7-bis(3,4-dimethoxyphenyl)-1,4,6-heptatrien-3-one]
- reduction of PSA level in plasma [1]: 90%
- reduction in tumor size ([1]; vs vehicle control): 75%
- PSA (prostate specific antigen) level in plasma ([1]; reduced from 57.0 ng/ml): 7.6 ng/mL
- tumor weight ([1]; vehicle control 0.694 g): 0.172 g
- cellular concentration of AR [2]: decreased
- other tested nuclear receptors or proteins [3]: did not substantially affect
- LNCaP cell growth in the presence of DHT ([4]; 1 nM DHT, 5 days): good potency to decrease LNCaP cell growth
- viable cells ([4]; end of 5-day incubation): only a minimal number of viable cells
- cell number per well ([4]; without DHT, starting from Day 2, vs vehicle control): marked decrease in cell number
- expression of other receptor proteins [5]: not affected

— patent US9446127B2, “Compositions including androgen receptor degradation (ARD) enhancers and methods of prophylactic or therapeutic treatment of skin disorders and hair loss” (AndroScience Corporation, priority 2007, dated 2016)
